Results: patent US20220347305A1, “CONTROLLED RELEASE DRUG DIMERS” (Ripple Therapeutics Corporation, priority 2019, published 2022)

What was measured:
[1] = Drug release and erosion of Compound 1 heat-molded pellets in release buffer (PBS, 1% FBS in PBS, 100% FBS); format: physicochemical; conditions: 37° C., 115 rpm
Description: Heat-molded pellets from Compound 1 (˜1 mm×1 mm) were then placed in 20 mL glass vials and 2 mL of release buffer (either 100% phosphate buffered saline (PBS), 1% fetal bovine serum (FBS) in PBS, or 100% FBS) was added. Samples were incubated at 37° C. on a shaker rotating at 115 rpm. After 1 day, 3 days, 7 days, and subsequently in alternating 3 and 4 day intervals (i.e., 1, 3, 7, 10, 14 days etc.), release buffer was sampled directly (PBS) or syringe filtered, proteins were precipitated with acetonitrile, and drug release products were extracted. The samples were analyzed by high performance liquid chromatography (HPLC) to quantify drug products. Cumulative drug release was calculated and plotted as a percentage of the total drug in each pellet released over time (FIG. 1E).

[2] = Pellet formation by heat molding (heat processing of compounds); format: physicochemical; conditions: processed ~10-30° C. above Tg or Tm, pressed into cylindrical mold ~1 mm x 1 mm, light microscopy
Description: Crystalline powder was melted at 185° C. and pellets were formed from 1 mm×1 mm cylindrical molds. The starting powder and heat-processed pellets were tested by differential scanning calorimetry (DSC; FIG. 1C) and X-ray powder diffraction (XRPD; FIG. 1D) to confirm heat-processing converted Compound 1 from the crystalline state to the glassy state.
Compounds that were collected as stable powders and/or gums were investigated for pellet formation by heat molding. Compounds were processed at a temperature ˜10-30° C. above their corresponding thermal transitions (glass transition temperature (Tg) for gums or amorphous powders or melting point (Tm) for crystalline powders) and pressed into a cylindrical mold of ˜1 mm in height×1 mm in diameter. Light microscopy was used to capture images of the heat-formed pellets. Temperatures used to achieve a melt for heat molding were in a range from 70° C. to 220° C.

[3] = Drug release from heat-molded pellets in phosphate buffered saline; format: physicochemical; conditions: 37° C.; for Observation of pellet after 1-day incubation in release buffer: 4 mL PBS, shaker 115 rpm
Description: Drug release from heat-molded pellets of the compounds were assessed in phosphate buffered saline (PBS). Heat-molded pellets were placed in 20 ml glass vials and 2 ml of release buffer was added. Samples were incubated at 37° C. with constant agitation at 115 rpm. Release buffer was sampled and fully replaced with 2 ml of fresh buffer on days 1, 3, 7, 10, and 14. Samples were analyzed by high performance liquid chromatography (HPLC) to quantify drug products. Cumulative release was calculated as a percentage of total mass of starting pellets and was plotted over time.
Heat molded pellets of Compound 3, Compound 5, and Compound 8 were then placed in 20 mL glass vials and 4 mL of release buffer (phosphate buffered saline, PBS) was added. Samples were incubated at 37° C. on a shaker rotating at 115 rpm. […] Drug release from Compound 8 was assessed by HPLC from PBS release buffer weekly for 8 weeks with full buffer change at each time point.

SMILES | melting point [°C] | Pellet formation by heat molding and handling properties of the pellet [2] | other results
C=CCN1CC[C@]23c4c5ccc(OC(=O)CCCCC(=O)Oc6ccc7c8c6O[C@H]6C(=O)CC[C@@]9(O)[C@@H](C7)N(CC=C)CC[C@]869)c4O[C@H]2C(=O)CC[C@@]3(O)[C@H]1C5 [Compound 9, bis((4R,4aS,7aR,12bS)-3-allyl-4a-hydroxy-7-oxo-2,3,4,4a,5,6,7,7a-octahydro-1H-4,12-methanobenzofuro[3,2-e]isoquinolin-9-yl) adipate] | 120 | – | –
N[C@@H](Cc1ccc(O)c(O)c1)C(=O)OCC1CCC(COC(=O)[C@@H](N)Cc2ccc(O)c(O)c2)CC1 (stereo partly drawn) [Compound 6, cyclohexane-1,4-diylbis(methylene) (2S,2′S)-bis(2-amino-3-(3,4-dihydroxyphenyl)propanoate)] | 161 to 166 | – | –
C[C@@H]1C[C@H]2[C@@H]3CCC4=CC(=O)C=C[C@]4(C)[C@@]3(F)[C@@H](O)C[C@]2(C)[C@@]1(O)C(=O)COC(=O)OCCOCCOCCOC(=O)OCC(=O)[C@@]1(O)[C@H](C)C[C@H]2[C@@H]3CCC4=CC(=O)C=C[C@]4(C)[C@@]3(F)[C@@H](O)C[C@@]21C [Compound 1, Dexamethasone-Triethylene Glycol-Dexamethasone] | – | formed into pellets in the glassy state | Erosion of pellets over time (representative images) [1]: surface erosion over time
O=C(CCCCCCCCC(=O)N1CCCN(S(=O)(=O)c2cccc3cnccc23)CC1)N1CCCN(S(=O)(=O)c2cccc3cnccc23)CC1 [Compound 5, 1,10-bis(4-(isoquinolin-5-ylsulfonyl)-1,4-diazepan-1-yl)decane-1,10-dione] | – | successfully formed glassy, mostly transparent pellets | Observation of pellet after 1-day incubation in release buffer [3]: fragmented entirely to opaque particulates
COc1ccc2c(c1)c(CC(=O)OCCOCCOCCOC(=O)Cc1c(C)n(C(=O)c3ccc(Cl)cc3)c3ccc(OC)cc13)c(C)n2C(=O)c1ccc(Cl)cc1 [Compound 8, (ethane-1,2-diylbis(oxy))bis(ethane-2,1-diyl) bis(2-(1-(4-chlorobenzoyl)-5-methoxy-2-methyl-1H-indol-3-yl)acetate)] | 102 | formed opaque yellow-tinted pellets that could be handled | Drug release from pellet assessed by HPLC ([3]; PBS release buffer, weekly for 8 weeks with full buffer change): Minimal drug release
O=C(OCCCCCCCOC(=O)N1CCCN(S(=O)(=O)c2cccc3cnccc23)CC1)N1CCCN(S(=O)(=O)c2cccc3cnccc23)CC1 [Compound 3, heptane-1,7-diyl bis(4-(isoquinolin-5-ylsulfonyl)-1,4-diazepane-1-carboxylate)] | – | successfully formed glassy, mostly transparent pellets | Observation of pellet after 1-day incubation in release buffer [3]: pellet shape changed to a clear gel
O=C(CCCCC(=O)Oc1ccc2c3c1O[C@H]1C(=O)CC[C@@]4(O)[C@@H](C2)N(CC2CC2)CC[C@]314)Oc1ccc2c3c1O[C@H]1C(=O)CC[C@@]4(O)[C@@H](C2)N(CC2CC2)CC[C@]314 [Compound 10, bis((4R,4aS,7aR,12bS)-3-(cyclopropylmethyl)-4a-hydroxy-7-oxo-2,3,4,4a,5,6,7,7a-octahydro-1H-4,12-methanobenzofuro[3,2-e]isoquinolin-9-yl) adipate] | – | didn't form a viscous liquid that could be pressed into a pellet | –
O=C(Oc1ccc2c3c1O[C@H]1C(=O)CC[C@@]4(O)[C@@H](C2)N(CC2CC2)CC[C@]314)c1ccc(C(=O)Oc2ccc3c4c2O[C@H]2C(=O)CC[C@@]5(O)[C@@H](C3)N(CC3CC3)CC[C@]425)cc1 [Compound 16, bis((4R,4aS,7aR,12bS)-3-(cyclopropylmethyl)-4a-hydroxy-7-oxo-2,3,4,4a,5,6,7,7a-octahydro-1H-4,12-methanobenzofuro[3,2-e]isoquinolin-9-yl) terephthalate] | – | – | Pellet formation by heat molding and handling properties of the pellet ([2]; listed as Naltrexone-1,4-terephthalate-Naltrexone): did not form a heat processed pellet
